Tests used:
[1] = target: T1, beta-catenin-B-cell lymphoma 9 protein complex (Homo sapiens, UniProt P35222); test: Inhibition of full length beta-catenin (1 to 781 residues) (unknown origin) expressed in Escherichia coli BL21 (DE3)-N-terminal biotinylated human BCL9 (350 to 375 residues) protein-protein interaction incubated for 1 hr by Alphascreen assay
T1 sequence (P35222 whole entry): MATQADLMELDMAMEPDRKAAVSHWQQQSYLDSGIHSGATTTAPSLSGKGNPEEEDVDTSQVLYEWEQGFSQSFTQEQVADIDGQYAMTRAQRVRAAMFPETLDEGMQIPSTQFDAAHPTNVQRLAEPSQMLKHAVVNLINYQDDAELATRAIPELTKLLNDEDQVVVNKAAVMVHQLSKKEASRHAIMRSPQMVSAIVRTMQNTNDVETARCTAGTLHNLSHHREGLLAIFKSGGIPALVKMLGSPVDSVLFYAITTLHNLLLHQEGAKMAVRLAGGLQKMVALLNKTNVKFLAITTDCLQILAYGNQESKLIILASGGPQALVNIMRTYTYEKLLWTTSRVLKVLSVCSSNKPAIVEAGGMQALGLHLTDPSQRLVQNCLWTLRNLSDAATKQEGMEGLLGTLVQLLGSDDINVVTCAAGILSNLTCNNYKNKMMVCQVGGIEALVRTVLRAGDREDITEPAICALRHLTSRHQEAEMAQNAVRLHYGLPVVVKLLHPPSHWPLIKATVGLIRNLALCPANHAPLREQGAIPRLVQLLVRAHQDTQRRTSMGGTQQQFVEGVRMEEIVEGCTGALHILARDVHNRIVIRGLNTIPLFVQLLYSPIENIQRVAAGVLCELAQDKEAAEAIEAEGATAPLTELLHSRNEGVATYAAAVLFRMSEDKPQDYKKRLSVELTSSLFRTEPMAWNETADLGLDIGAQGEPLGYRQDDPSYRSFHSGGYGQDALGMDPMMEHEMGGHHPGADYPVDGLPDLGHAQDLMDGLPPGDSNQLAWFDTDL
T1 sequence (O00512 whole entry): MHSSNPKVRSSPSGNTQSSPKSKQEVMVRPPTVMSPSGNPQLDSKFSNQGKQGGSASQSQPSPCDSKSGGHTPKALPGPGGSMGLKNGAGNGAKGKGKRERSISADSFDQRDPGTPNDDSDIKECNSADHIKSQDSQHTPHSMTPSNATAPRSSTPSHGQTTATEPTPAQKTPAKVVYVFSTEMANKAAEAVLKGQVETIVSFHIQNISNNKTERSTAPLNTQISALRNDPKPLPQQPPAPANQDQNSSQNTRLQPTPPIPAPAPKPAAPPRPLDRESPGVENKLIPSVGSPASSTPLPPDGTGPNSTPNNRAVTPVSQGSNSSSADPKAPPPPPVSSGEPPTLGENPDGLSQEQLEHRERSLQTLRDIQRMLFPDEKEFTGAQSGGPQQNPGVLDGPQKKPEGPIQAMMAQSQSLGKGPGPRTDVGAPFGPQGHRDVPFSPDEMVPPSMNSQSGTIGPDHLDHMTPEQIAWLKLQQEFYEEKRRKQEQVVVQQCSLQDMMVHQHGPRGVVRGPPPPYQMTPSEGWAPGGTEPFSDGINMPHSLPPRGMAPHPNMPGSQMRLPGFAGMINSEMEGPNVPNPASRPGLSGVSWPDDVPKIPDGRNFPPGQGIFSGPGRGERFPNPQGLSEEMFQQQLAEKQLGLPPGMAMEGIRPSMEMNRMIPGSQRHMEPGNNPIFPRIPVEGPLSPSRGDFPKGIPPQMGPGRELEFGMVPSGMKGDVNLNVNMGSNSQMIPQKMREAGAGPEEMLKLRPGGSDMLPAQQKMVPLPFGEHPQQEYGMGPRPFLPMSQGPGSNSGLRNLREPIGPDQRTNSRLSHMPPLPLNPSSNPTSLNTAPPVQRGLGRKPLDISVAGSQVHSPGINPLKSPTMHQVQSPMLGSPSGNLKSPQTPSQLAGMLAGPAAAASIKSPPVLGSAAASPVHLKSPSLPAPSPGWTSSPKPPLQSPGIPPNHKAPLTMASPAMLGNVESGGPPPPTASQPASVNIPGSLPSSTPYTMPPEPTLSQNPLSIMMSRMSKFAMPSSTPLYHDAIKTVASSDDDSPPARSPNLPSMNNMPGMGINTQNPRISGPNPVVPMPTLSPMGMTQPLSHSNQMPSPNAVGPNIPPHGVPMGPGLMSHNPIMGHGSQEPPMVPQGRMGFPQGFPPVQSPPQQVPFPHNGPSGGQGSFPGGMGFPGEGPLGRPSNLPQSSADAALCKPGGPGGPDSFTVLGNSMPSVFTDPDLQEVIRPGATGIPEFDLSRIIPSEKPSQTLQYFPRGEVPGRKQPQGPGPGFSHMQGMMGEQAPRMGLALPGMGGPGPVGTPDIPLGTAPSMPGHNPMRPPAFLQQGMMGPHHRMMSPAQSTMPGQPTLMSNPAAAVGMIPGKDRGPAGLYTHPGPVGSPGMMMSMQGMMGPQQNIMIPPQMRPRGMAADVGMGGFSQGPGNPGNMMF

MCF-10A = test: Antiproliferative activity against human MCF-10A cells assessed as inhibition of cell growth measured by MTS method; type: functional, cell-based
MDA-MB-468 = test: Antiproliferative activity against human MDA-MB-468 cells assessed as inhibition of cell growth measured by MTS method; type: functional, cell-based
SW480 = test: Antiproliferative activity against human SW480 cells assessed as inhibition of cell growth measured by MTS method; type: functional, cell-based
MDA-MB-231 = test: Antiproliferative activity against human MDA-MB-231 cells assessed as inhibition of cell growth measured by MTS method; type: functional, cell-based
HCT-116 = test: Antiproliferative activity against human HCT-116 cells assessed as inhibition of cell growth measured by MTS method; type: functional, cell-based
[2] = Inhibition of Wnt/beta-catenin transactivation signalling in human SW480 cells by TOPFlash reporter gene assay; type: cell-based
CYP1A2 = target: T2, CYP1A2 (Homo sapiens, UniProt P05177); test: Inhibition of CYP1A2 in human liver microsomes using phenacetin at 10 uM in presence of NADPH incubated for 10 mins; type: ADME, Microsome; settings: probe phenacetin
T2 sequence (P05177 whole entry): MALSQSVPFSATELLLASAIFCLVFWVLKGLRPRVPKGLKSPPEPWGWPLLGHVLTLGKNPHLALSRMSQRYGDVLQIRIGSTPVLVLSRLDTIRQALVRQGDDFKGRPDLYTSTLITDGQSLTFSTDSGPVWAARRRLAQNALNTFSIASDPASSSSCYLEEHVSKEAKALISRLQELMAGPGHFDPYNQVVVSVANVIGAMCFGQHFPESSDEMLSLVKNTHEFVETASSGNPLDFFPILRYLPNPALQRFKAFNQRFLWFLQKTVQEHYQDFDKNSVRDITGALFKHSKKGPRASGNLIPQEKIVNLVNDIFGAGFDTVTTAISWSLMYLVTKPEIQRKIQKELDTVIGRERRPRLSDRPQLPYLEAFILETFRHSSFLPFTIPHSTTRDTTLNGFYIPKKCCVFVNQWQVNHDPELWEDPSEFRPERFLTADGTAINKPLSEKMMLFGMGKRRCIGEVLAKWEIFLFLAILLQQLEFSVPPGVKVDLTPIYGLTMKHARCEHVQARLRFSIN

CYP2D6 = CYP2D6 (Homo sapiens, UniProt P10635); test: Inhibition of CYP2D6 in human liver microsomes using bufuralol as substrate at 10 uM in presence of NADPH incubated for 10 mins; type: ADME, Microsome; settings: probe bufuralol
Sequence of CYP2D6 (P10635 whole entry): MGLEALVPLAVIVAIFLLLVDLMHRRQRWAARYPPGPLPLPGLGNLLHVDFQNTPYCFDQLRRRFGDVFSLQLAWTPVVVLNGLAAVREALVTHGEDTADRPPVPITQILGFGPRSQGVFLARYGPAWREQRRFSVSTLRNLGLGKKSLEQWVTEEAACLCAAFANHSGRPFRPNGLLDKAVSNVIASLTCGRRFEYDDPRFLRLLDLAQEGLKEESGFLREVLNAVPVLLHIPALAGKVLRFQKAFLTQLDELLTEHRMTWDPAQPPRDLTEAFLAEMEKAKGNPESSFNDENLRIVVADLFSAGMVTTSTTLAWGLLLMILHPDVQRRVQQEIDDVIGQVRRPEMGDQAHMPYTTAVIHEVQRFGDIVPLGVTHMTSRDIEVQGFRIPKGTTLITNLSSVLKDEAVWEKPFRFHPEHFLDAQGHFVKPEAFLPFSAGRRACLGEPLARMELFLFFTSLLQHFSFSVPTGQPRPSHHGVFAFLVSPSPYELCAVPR

CYP3A4 = CYP3A4 (Homo sapiens, UniProt P08684); test: Inhibition of CYP3A4 in human liver microsomes using Midazolam as substrate at 10 uM in presence of NADPH incubated for 10 mins; type: ADME, Microsome; settings: probe midazolam
Sequence of CYP3A4 (P08684 whole entry): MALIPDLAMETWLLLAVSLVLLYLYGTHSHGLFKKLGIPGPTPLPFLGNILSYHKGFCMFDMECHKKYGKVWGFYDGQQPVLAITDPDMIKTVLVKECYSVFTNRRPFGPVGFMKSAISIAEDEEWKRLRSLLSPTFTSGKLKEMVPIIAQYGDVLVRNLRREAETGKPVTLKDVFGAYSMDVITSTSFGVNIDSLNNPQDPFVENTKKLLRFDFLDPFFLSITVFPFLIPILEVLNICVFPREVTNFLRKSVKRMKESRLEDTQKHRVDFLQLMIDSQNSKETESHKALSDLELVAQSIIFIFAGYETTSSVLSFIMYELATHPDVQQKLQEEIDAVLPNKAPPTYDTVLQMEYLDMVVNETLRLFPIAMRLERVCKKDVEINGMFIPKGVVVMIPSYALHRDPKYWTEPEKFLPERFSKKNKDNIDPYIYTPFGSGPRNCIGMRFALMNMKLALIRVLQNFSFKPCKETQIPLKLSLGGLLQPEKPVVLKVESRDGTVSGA

CYP2C9 = CYP2C9 (Homo sapiens, UniProt P11712); test: Inhibition of CYP2C9 in human liver microsomes using tolbutamide as substrate at 10 uM in presence of NADPH incubated for 10 mins; type: ADME, Microsome; settings: probe tolbutamide
Sequence of CYP2C9 (P11712 whole entry): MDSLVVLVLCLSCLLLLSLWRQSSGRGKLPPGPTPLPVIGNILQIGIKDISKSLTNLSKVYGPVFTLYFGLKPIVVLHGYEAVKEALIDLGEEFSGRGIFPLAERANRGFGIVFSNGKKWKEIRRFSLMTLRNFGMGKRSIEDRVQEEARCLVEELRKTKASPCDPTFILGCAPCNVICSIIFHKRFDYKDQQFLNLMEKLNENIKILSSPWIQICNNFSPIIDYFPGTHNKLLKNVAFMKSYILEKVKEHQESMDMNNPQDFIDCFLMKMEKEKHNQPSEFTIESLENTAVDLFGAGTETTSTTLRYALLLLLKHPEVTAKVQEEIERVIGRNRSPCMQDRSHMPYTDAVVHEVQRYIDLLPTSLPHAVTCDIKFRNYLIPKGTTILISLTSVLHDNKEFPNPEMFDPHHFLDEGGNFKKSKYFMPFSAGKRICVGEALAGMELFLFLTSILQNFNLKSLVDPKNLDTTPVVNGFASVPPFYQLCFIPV

Q: Which IC50 [1] does the source give for `CC(C)(Oc1cccc(N2CCC[C@@H](C(=O)N(Cc3ccc(-c4ccnc5[nH]ccc45)cc3)C3CC3)C2)c1)C(=O)N1CCNCC1` here?
A: 2.2 µM

Q: What about the Ki [1] of the same compound?
A: 1.8 µM

Q: And the IC50 (MCF-10A)?
A: 29 µM

Q: What about the IC50 (MDA-MB-468) of the same compound?
A: 5.5 µM

Q: What about the IC50 (SW480) of the same compound?
A: 10 µM

Q: What about the IC50 (MDA-MB-231) of the same compound?
A: 6.5 µM

Q: What about the IC50 (HCT-116) of the same compound?
A: 7.7 µM

Q: And the IC50 [2]?
A: 15 µM

Q: For `CC(C)(Oc1cccc(N2CCC[C@@H](C(=O)N(Cc3ccc(-c4c[nH]c5ncccc45)cc3)C3CC3)C2)c1)C(=O)N1CCNCC1`, which IC50 [1] is on record?
A: 0.96 µM

Q: And the Ki [1]?
A: 0.85 µM

Q: What about the IC50 (MCF-10A) of the same compound?
A: 24 µM

Q: What about the IC50 (MDA-MB-468) of the same compound?
A: 5 µM

Q: What about the IC50 (SW480) of the same compound?
A: 9.7 µM

Q: And the IC50 (MDA-MB-231)?
A: 4.6 µM

Q: What about the IC50 (HCT-116) of the same compound?
A: 8.1 µM

Q: What about the IC50 [2] of the same compound?
A: 11 µM

Q: With `CC(C)N(Cc1ccc(-c2cn[nH]c2)cc1)C(=O)[C@@H]1CCCN(c2cccc(OC(C)(C)C(=O)N3CCNCC3)c2)C1` as the compound, how does the IC50 [1] read?
A: 8.9 µM

Q: And the Ki [1]?
A: 8 µM

Q: With `CC(C)(Oc1cccc(N2CCC[C@@H](C(=O)N(Cc3ccc(-c4cn[nH]c4)cc3)C3CC3)C2)c1)C(=O)N1CCC2(CCNC2)C1` (some centres not stated) as the compound, how does the IC50 [1] read?
A: 12 µM

Q: And the Ki [1]?
A: 9.8 µM

Q: For `CC(C)(Oc1cccc(N2CCC[C@@H](C(=O)N(Cc3ccc(-c4cn[nH]c4)cc3)C3CCCC3)C2)c1)C(=O)N1CCNCC1`, which IC50 [1] is on record?
A: 7.6 µM

Q: What about the Ki [1] of the same compound?
A: 6.8 µM

Q: With `O=C([C@@H]1CCCN(c2cccc(OC3(C(=O)N4CCNCC4)CCCC3)c2)C1)N(Cc1ccc(-c2cn[nH]c2)cc1)C1CC1` as the compound, how does the IC50 [1] read?
A: 43 µM

Q: What about the Ki [1] of the same compound?
A: 39 µM

Q: With `CC(C)(Oc1cccc(N2CCC[C@@H](C(=O)N(Cc3ccc(-c4cn[nH]c4)cc3)C3CC3)C2)c1)C(=O)N1C[C@H]2CNC[C@H]2C1` as the compound, how does the IC50 [1] read?
A: 8.3 µM

Q: What about the Ki [1] of the same compound?
A: 6.8 µM

Q: With `CC(C)(Oc1cccc(N2CCC[C@@H](C(=O)N(Cc3ccc(-c4cn[nH]c4)cc3)C3CC3)C2)c1)C(=O)N1CC2(CCNCC2)C1` as the compound, how does the IC50 [1] read?
A: 38 µM

Q: And the Ki [1]?
A: 31 µM

Q: Which IC50 [1] does the source give for `O=C(C(Oc1cccc(N2CCC[C@@H](C(=O)N(Cc3ccc(-c4cn[nH]c4)cc3)C3CC3)C2)c1)c1ccccc1)N1CCNCC1` (some centres not stated) here?
A: 23 µM

Q: What about the Ki [1] of the same compound?
A: 21 µM

Q: With `CC(C)(Oc1cccc(N2CCC[C@@H](C(=O)NCc3ccc(-c4cn[nH]c4)cc3)C2)c1)C(=O)N1CCNCC1` as the compound, how does the IC50 [1] read?
A: 81 µM

Q: And the Ki [1]?
A: 73 µM

Q: Which IC50 [1] does the source give for `CC(C)(Oc1cccc(N2CCC[C@@H](C(=O)N(Cc3ccc(-c4cn[nH]c4)cc3)CC3CC3)C2)c1)C(=O)N1CCNCC1` here?
A: 18 µM

Q: And the Ki [1]?
A: 15 µM

Q: Which IC50 [1] does the source give for `CC(C)(Oc1cccc(N2CCC[C@@H](C(=O)N(Cc3ccc(-c4cccc5[nH]ncc45)cc3)C3CC3)C2)c1)C(=O)N1CCNCC1` here?
A: 2.5 µM

Q: And the Ki [1]?
A: 2 µM

Q: With `CC(C)(Oc1cccc(N2CCC[C@@H](C(=O)N(Cc3ccc(-c4cn[nH]c4)cc3)C3CC3)C2)c1)C(=O)N1CC2(CNC2)C1` as the compound, how does the IC50 [1] read?
A: 44 µM

Q: What about the Ki [1] of the same compound?
A: 37 µM

Q: With `CC(C)(Oc1cccc(N2CCC[C@@H](C(=O)N(Cc3ccc(-c4cn[nH]c4)cc3)C3CCC3)C2)c1)C(=O)N1CCNCC1` as the compound, how does the IC50 [1] read?
A: 12 µM

Q: What about the Ki [1] of the same compound?
A: 11 µM

Q: For `CC(C)(Oc1cccc(N2CCC[C@@H](C(=O)N(Cc3ccc(-c4cn[nH]c4)cc3)C3CC3)C2)c1)C(=O)N1CCC2(CNC2)C1`, which IC50 [1] is on record?
A: 20 µM

Q: What about the Ki [1] of the same compound?
A: 16 µM

Q: For `O=C([C@@H]1CCCN(c2cccc(OC3(C(=O)N4CCNCC4)CC3)c2)C1)N(Cc1ccc(-c2cn[nH]c2)cc1)C1CC1`, which IC50 [1] is on record?
A: 29 µM

Q: What about the Ki [1] of the same compound?
A: 24 µM

Q: Which IC50 [1] does the source give for `CN(Cc1ccc(-c2cn[nH]c2)cc1)C(=O)[C@@H]1CCCN(c2cccc(OC(C)(C)C(=O)N3CCNCC3)c2)C1` here?
A: 28 µM

Q: And the Ki [1]?
A: 25 µM

Q: Which results are given for `CC(C)(Oc1cccc(N2CCC[C@@H](C(=O)N(Cc3ccc(-c4cn[nH]c4)cc3)C3CC3)C2)c1)C(=O)N1CCNCC1`?
A: inhibition at 10 min, 10 µM (CYP1A2): 17%; inhibition at 10 min, 10 µM (CYP2D6): 73%; inhibition at 10 min, 10 µM (CYP3A4): 96%; inhibition at 10 min, 10 µM (CYP2C9): 83%

Q: For `CC(C)(Oc1cccc(N2CCC[C@@H](C(=O)N(Cc3ccc(-c4c[nH]c5ccccc45)cc3)C3CC3)C2)c1)C(=O)N1CCNCC1`, which IC50 [1] is on record?
A: 1.4 µM

Q: And the Ki [1]?
A: 1.2 µM

Source: ChEMBL document CHEMBL5154919, “New ZW4864 Derivatives as Small-Molecule Inhibitors for the β-Catenin/BCL9 Protein-Protein Interaction” (ACS Med Chem Lett, 2022)
